The text below walks through data of ChEMBL document CHEMBL4507291 (2021).

Test [1] has as its target Serine/threonine-protein kinase MRCK alpha (Homo sapiens) (UniProt Q5VT25). The experiment in a line: CDC42 BPA (MRCKA) Kinase screen. To be noted: Compound concentration 1.0 uM.
In test [2] the test system is Proto-oncogene tyrosine-protein kinase receptor Ret (Homo sapiens), P07949 [Y791F]. Briefly: RET Y791F Kinase screen. To be noted: Compound concentration 1.0 uM.
The target in test [3] is Proto-oncogene tyrosine-protein kinase receptor Ret (Homo sapiens) (UniProt P07949). Briefly: RET Kinase screen. To be noted: Compound concentration 1.0 uM.
Test [4] concerns the target Mitogen-activated protein kinase 9 (Homo sapiens) (UniProt P45984). Briefly: MAPK9 (JNK2) Kinase screen. To be noted: Compound concentration 1.0 uM.
Test [5] deals with Kappa-type opioid receptor (Homo sapiens) (UniProt P41145). To be noted: Compound concentration 10.0 uM.
Test [6] addresses Corticotropin-releasing factor receptor 1 (Homo sapiens) (UniProt P34998). The experiment in a line: Corticotropin Releasing Factor CRF1 Eurofins-Panlabs radioligand binding assay. To be noted: Compound concentration 10.0 uM.
Test [7] concerns the target Death-associated protein kinase 1 (Homo sapiens) (UniProt P53355). Briefly: DAPK1 Kinase screen. Conditions: Compound concentration 1.0 uM.
Test [8] has as its target T1, TGF-beta receptor type-1 (Homo sapiens) (UniProt P36897).
T1 sequence (whole entry): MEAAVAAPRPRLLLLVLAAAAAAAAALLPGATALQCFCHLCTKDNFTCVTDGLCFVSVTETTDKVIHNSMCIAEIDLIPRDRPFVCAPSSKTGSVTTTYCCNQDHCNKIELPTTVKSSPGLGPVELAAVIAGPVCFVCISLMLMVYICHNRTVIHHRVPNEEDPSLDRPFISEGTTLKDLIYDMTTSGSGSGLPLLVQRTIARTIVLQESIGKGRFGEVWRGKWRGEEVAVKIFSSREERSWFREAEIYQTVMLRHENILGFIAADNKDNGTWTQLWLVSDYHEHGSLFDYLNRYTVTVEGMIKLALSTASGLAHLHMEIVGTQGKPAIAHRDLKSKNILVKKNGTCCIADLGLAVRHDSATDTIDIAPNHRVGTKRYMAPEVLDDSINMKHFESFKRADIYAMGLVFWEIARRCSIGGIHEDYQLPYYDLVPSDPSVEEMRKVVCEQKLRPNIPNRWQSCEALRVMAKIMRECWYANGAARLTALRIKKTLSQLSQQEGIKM
The experiment in a line: TGFBR1 (ALK5) Kinase screen. Conditions: Compound concentration 1.0 uM.

Test [9] concerns the target Serine/threonine-protein kinase PAK 6 (Homo sapiens) (UniProt Q9NQU5). Briefly: PAK6 Kinase screen. Conditions: Compound concentration 1.0 uM.
Test [10] addresses T2, Serine/threonine-protein kinase Nek2 (Homo sapiens) (UniProt P51955).
T2 sequence (whole entry): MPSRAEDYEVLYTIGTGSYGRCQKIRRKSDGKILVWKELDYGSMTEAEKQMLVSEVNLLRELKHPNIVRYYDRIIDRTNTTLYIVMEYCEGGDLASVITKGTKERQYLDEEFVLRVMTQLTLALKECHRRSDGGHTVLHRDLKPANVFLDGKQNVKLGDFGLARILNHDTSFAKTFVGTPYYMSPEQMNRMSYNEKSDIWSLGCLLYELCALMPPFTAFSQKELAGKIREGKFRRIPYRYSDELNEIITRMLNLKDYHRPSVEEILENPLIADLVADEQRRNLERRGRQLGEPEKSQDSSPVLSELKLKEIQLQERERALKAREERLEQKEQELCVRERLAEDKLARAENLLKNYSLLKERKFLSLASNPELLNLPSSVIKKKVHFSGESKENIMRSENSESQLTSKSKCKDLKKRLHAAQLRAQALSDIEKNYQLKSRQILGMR
Briefly: NEK2 Kinase screen. Conditions: Compound concentration 1.0 uM.

The target of test [11] is T3, Homeodomain-interacting protein kinase 4 (Homo sapiens) (UniProt Q8NE63).
T3 sequence (whole entry): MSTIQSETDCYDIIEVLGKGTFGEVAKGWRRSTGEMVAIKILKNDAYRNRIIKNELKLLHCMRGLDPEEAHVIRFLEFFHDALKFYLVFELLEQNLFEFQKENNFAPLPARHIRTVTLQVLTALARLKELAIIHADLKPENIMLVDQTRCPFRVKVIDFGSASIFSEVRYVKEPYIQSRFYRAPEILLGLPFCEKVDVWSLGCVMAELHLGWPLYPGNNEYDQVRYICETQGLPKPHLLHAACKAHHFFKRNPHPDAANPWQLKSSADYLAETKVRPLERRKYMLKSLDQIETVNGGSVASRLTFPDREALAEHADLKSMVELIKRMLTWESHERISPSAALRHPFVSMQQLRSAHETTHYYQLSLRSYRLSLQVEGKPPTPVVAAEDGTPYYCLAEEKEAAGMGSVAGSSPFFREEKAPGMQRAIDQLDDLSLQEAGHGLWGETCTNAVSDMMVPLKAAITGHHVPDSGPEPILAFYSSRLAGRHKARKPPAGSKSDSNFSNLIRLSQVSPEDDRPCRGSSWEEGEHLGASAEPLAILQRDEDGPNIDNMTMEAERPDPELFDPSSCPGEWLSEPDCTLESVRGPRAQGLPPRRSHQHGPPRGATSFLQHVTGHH
Briefly: HIPK4 Kinase screen. To be noted: Compound concentration 1.0 uM.

Test [12] deals with Vasoactive intestinal polypeptide receptor 1 (Homo sapiens) (UniProt P32241). Briefly: Inhibition of Vasoactive Intestinal Peptide VIP1 at 10 µM in the Eurofins-Panlabs radioligand binding assay (Eurofins_assay_287010). Conditions: Compound concentration 10.0 uM.
The target of test [13] is Protein kinase C beta type (Homo sapiens) (UniProt P05771). Briefly: PRKCB1 (PKC beta I) Kinase screen. To be noted: Compound concentration 1.0 uM.
In test [14] the target is Serine/threonine-protein kinase MARK2 (Homo sapiens) (UniProt Q7KZI7). The experiment in a line: MARK2 Kinase screen. Conditions: Compound concentration 1.0 uM.
Test [15] deals with 5-hydroxytryptamine receptor 2B (Homo sapiens, UniProt P41595).
Test [16] has as its target MAP kinase-activated protein kinase 3 (Homo sapiens) (UniProt Q16644). Briefly: MAPKAPK3 Kinase screen. To be noted: Compound concentration 1.0 uM.
Test [17] concerns the target T4, Alpha-2B adrenergic receptor (Homo sapiens) (UniProt P18089).
T4 sequence (whole entry): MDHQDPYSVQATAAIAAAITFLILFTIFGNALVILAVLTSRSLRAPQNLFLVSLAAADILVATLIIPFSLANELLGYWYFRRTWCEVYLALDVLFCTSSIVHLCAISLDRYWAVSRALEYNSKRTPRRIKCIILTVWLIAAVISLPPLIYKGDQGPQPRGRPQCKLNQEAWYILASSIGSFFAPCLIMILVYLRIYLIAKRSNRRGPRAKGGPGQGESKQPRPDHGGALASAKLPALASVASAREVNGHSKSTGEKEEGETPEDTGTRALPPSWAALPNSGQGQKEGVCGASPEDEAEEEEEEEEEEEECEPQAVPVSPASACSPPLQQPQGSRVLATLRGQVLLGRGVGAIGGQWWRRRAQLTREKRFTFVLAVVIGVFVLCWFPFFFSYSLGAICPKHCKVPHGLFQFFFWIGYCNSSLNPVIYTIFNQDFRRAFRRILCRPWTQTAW
To be noted: Compound concentration 10.0 uM.

In test [18] the target is Histamine H3 receptor (Homo sapiens) (UniProt Q9Y5N1). To be noted: Compound concentration 10.0 uM.
Chain of Histamine H3 receptor (Homo sapiens) (Q9Y5N1 whole entry): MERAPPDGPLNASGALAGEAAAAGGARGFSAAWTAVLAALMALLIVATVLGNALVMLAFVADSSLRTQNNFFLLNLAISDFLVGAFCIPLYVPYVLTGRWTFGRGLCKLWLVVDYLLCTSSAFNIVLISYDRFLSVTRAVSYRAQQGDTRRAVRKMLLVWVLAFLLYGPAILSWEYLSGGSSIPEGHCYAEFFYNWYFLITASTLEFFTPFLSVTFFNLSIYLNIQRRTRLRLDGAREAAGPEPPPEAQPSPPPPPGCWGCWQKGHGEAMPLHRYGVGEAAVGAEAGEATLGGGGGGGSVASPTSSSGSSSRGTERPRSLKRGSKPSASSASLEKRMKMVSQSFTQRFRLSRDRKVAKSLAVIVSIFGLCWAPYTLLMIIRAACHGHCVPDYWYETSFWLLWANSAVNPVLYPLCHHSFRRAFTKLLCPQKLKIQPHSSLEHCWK

Chain of 5-hydroxytryptamine receptor 2B (P41595 whole entry): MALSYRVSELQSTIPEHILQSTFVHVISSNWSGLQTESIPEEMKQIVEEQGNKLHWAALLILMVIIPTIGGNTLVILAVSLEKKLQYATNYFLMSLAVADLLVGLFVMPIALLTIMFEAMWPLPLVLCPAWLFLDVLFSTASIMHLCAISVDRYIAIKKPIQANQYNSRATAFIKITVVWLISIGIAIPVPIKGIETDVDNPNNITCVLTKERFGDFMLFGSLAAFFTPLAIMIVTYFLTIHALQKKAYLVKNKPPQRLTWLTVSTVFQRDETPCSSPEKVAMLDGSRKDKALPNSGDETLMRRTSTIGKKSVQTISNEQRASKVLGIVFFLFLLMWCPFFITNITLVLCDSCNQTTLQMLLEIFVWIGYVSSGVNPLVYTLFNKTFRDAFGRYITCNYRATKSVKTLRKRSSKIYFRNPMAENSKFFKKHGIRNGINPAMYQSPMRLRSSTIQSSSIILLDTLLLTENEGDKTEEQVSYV
Chain of Proto-oncogene tyrosine-protein kinase receptor Ret (Homo sapiens) (P07949 whole entry): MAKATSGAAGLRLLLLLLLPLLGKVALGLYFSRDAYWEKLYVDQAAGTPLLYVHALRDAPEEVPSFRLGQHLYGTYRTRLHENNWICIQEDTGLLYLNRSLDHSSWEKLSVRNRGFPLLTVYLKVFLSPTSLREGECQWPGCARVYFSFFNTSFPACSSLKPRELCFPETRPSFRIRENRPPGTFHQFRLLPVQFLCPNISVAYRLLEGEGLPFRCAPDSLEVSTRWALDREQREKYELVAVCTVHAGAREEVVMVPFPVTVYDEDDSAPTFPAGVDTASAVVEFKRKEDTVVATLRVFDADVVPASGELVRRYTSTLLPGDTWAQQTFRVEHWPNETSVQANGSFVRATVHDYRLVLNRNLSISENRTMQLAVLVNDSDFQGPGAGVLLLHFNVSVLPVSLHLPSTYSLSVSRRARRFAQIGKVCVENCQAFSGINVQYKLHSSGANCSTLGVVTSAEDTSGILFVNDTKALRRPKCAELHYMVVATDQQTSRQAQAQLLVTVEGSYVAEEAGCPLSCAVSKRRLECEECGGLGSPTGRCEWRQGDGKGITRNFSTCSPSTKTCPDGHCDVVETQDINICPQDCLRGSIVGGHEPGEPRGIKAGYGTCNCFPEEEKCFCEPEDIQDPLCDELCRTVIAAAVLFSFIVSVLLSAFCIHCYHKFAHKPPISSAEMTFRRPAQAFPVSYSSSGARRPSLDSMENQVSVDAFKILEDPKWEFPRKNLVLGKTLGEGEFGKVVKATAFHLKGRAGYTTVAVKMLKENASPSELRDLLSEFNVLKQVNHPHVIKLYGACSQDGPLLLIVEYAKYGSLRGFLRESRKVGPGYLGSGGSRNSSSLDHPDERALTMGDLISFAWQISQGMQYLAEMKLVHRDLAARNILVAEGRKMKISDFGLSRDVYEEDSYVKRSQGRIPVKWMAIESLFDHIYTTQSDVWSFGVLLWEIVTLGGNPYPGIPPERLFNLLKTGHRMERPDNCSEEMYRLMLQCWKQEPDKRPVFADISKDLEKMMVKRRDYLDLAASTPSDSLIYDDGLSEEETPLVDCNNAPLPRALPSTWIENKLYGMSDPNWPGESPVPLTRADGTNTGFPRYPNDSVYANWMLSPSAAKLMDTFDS
Chain of Serine/threonine-protein kinase MRCK alpha (Homo sapiens) (Q5VT25 whole entry): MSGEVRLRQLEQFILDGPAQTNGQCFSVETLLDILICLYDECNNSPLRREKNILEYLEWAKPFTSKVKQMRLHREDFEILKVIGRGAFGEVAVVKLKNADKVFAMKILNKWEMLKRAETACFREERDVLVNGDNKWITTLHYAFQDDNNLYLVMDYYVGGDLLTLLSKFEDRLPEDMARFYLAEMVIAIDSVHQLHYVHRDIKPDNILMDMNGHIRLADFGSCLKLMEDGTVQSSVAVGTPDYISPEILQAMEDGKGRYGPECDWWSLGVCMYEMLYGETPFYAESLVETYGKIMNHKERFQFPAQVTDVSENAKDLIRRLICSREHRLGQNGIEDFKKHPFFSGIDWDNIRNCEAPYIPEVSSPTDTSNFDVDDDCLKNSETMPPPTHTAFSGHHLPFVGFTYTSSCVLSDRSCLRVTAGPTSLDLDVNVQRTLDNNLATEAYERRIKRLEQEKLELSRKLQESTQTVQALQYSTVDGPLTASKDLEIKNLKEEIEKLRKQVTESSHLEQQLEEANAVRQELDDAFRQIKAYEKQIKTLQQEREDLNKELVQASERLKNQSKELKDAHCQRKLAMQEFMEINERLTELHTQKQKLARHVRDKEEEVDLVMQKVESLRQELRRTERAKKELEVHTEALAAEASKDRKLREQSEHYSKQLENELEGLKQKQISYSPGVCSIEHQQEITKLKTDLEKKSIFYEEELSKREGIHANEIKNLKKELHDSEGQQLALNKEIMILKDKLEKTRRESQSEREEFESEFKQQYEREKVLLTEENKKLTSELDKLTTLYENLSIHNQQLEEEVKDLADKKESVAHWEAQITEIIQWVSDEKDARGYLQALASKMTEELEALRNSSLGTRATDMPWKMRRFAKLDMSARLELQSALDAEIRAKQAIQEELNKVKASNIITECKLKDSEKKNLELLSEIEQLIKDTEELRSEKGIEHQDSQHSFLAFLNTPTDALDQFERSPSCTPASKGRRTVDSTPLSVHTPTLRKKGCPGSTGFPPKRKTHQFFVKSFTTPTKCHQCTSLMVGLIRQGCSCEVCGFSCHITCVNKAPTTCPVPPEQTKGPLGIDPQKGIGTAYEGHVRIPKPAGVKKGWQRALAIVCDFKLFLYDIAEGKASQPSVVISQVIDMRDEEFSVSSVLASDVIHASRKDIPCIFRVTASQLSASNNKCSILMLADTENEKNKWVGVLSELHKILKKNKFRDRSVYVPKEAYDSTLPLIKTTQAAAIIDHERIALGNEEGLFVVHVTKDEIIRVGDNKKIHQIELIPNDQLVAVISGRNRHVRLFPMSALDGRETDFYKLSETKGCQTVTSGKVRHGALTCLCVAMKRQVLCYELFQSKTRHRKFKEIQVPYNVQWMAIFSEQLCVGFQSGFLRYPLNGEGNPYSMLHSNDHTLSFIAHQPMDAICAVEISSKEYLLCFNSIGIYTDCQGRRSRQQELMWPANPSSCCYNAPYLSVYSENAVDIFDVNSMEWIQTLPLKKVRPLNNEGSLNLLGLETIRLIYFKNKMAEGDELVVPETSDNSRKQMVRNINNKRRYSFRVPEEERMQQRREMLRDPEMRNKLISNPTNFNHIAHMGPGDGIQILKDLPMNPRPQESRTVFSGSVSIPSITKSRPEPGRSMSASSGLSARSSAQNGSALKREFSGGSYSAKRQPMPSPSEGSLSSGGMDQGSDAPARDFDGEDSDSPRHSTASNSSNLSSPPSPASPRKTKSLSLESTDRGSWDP
Chain of Serine/threonine-protein kinase PAK 6 (Homo sapiens) (Q9NQU5 whole entry, looked up): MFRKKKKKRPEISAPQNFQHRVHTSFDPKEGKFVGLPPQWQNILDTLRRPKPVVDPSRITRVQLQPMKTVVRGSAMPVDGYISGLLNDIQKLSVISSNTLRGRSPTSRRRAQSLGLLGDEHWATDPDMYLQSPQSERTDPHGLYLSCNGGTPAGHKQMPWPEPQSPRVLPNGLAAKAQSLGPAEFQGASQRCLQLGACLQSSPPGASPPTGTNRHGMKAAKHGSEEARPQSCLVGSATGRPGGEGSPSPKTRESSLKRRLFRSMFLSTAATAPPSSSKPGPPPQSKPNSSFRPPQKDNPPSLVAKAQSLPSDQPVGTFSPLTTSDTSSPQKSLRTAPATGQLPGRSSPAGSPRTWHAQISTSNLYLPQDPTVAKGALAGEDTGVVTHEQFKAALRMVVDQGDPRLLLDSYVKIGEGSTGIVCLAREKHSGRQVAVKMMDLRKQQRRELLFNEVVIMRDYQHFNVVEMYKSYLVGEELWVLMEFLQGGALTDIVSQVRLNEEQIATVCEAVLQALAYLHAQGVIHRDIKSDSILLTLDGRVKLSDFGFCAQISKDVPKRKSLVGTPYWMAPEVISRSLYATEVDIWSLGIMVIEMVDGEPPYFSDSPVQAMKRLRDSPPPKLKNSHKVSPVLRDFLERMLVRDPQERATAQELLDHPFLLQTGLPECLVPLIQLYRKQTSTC
Chain of Corticotropin-releasing factor receptor 1 (Homo sapiens) (P34998 whole entry): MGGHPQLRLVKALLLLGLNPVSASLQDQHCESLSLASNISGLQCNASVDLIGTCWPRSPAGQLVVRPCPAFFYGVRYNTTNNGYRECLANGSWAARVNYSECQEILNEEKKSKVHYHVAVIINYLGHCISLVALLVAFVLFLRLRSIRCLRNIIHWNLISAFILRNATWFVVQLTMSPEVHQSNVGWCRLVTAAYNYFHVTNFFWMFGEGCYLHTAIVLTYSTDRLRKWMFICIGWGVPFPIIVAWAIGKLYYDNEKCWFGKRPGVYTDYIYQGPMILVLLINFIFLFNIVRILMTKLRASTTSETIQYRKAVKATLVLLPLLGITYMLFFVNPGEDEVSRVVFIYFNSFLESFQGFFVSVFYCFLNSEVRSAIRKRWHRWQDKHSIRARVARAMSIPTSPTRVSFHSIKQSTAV
Chain of Proto-oncogene tyrosine-protein kinase receptor Ret (Homo sapiens), P07949 [Y791F] (P07949 whole entry Y791F): as the sequence (P07949 whole entry) above, with Y791F counted along it

What is called inhibition is the drop in the measured response relative to a control, in per cent. On to `C[C@@H]1CN(c2cc(-c3n[nH]c4ccc(OC5(C)CC5)cc34)ncn2)C[C@H](C)O1` [MLi-2], for which the inhibition in test [1] was 2.46%; in test [2], 5.35%; in test [3], 5.76%; in test [4], 19.7%; in test [5] it was 19%; in test [6], 6%. The inhibition is -0.645% in [7]; 0.904% in [8]; 1.67% in test [9]; -2.6% in test [10]; 6.2% in test [11]; 3% in test [12]. Besides, the inhibition was -7.69% in [13]; 7.83% in [14]; -7% in [15] (Compound concentration 0.01 uM); 8% in [15] (Compound concentration 0.1 uM); 44% in [15] (Compound concentration 1.0 uM); 95% in test [15] (Compound concentration 10.0 uM). Besides, the figures for the inhibition in test [16] and in test [17] were 3.73% and 2%, respectively.
With `C[C@@H]1CN(c2cc(-c3nn(C)c4ccc(OC5(C)CC5)cc34)ncn2)C[C@H](C)O1` [MLi-2-NC], the inhibition in [18] was -6.25%.
